Measured values: US11247965B2 (VenatoRx Pharmaceuticals, Inc., priority 2017, dated 2022)

Key:
[1] = test system: HBV replication in HepAD38 cells; test: Anti-HBV activity in HepAD38 cells, extracellular HBV DNA by QPCR; assay type: cell-based, HBV (genotype D, serotype ayw); conditions: Hepatitis B virus, HePAD38, 168 h, read-out: Anti-HBV EC50, HepAD38 cells, extracellular HBV DNA by QPCR, 7 days of incubation
Summary of the method: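 HepAD38 cells (HepG2 with tet-repressible HBV genotype D genome) seeded overnight, tetracycline removed, then treated 7 days with compounds (half-log dilutions, 30 μM–10 nM; 1:200 from DMSO). Supernatant HBV DNA quantified by QPCR against standard curve; % inhibition vs vehicle, EC50 by 4-parameter fit.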

[2] = In vitro cytotoxicity, MTT cell viability assay in HepG2 cells; assay type: cell-based; conditions: human, Cytotoxicity CC50
Summary of the method: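 Viability measured by MTT conversion, absorbance at 492 nm, as percent of vehicle-treated wells. Compounds spanned 30 μM to 1.0 nM in half-log steps over a 7-day exposure of parental HepG2 cells; CC50 derived by 4-parameter curve fit.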

Row | Compound | EC50 [1] [µM] | CC50 at 7 days [2] [µM]
1 | Cc1cc(NC(=O)c2ccc(F)c(C(F)(F)C(=O)N3CCc4[nH]cnc4C3)c2)ccc1F [Example 238, 3-(1,1-difluoro-2-oxo-2-(1,4,6,7-tetrahydro-5H-imidazo[4,5-c]pyridin-5-yl)ethyl)-4-fluoro-N-(4-fluoro-3-methylphenyl)benzamide] | < 5 | > 30
2 | COC(=O)N1C[C@H]2COC[C@@H](C1)N2C(=O)C(F)(F)c1cc(C(=O)Nc2ccc(F)c(C)c2)ccc1F [Example 239, methyl (1R,5S)-9-(2,2-difluoro-2-(2-fluoro-5-((4-fluoro-3-methylphenyl)carbamoyl)phenyl)acetyl)-3-oxa-7,9-diazabicyclo[3.3.1]nonane-7-carboxylate] | < 5 | 5 to 30
3 | Cc1cc(NC(=O)c2ccc(F)c(C(F)(F)C(=O)N3[C@@H]4CC[C@H]3CC(O)(CC#N)C4)c2)ccc1F (stereo partly drawn) [Example 240, 3-(2-((1R,5S)-3-(cyanomethyl)-3-hydroxy-8-azabicyclo[3.2.1]octan-8-yl)-1,1-difluoro-2-oxoethyl)-4-fluoro-N-(4-fluoro-3-methylphenyl)benzamide] | < 5 | < 5
4 | Cc1cc(NC(=O)c2ccc(F)c(C(F)(F)C(=O)N3[C@@H]4CC[C@H]3CC(O)(CC(N)=O)C4)c2)ccc1F (stereo partly drawn) [Example 241, 3-(2-((1R,5S)-3-(2-amino-2-oxoethyl)-3-hydroxy-8-azabicyclo[3.2.1]octan-8-yl)-1,1-difluoro-2-oxoethyl)-4-fluoro-N-(4-fluoro-3-methylphenyl)benzamide] | < 5 | 5 to 30
5 | Cc1cc(NC(=O)c2ccc(F)c(C(F)(F)C(=O)N3CCc4nc(N)sc4C3)c2)ccc1F [Example 242, 3-(2-(2-amino-6,7-dihydrothiazolo[5,4-c]pyridin-5(4H)-yl)-1,1-difluoro-2-oxoethyl)-4-fluoro-N-(4-fluoro-3-methylphenyl)benzamide] | < 5 | 5 to 30
6 | Cc1cc(NC(=O)c2ccnc(C(F)(F)C(=O)N3CCC(O)CC3)c2)ccc1F [Example 243, 2-(1,1-difluoro-2-(4-hydroxypiperidin-1-yl)-2-oxoethyl)-N-(4-fluoro-3-methylphenyl)isonicotinamide] | 5 to 30 | > 30
7 | Cc1cc(NC(=O)c2ccnc(C(F)(F)C(=O)N3C4CC[C@@H]3C[C@@H](C(=O)O)C4)c2)ccc1F [Example 244, (1R,3s,5S)-8-(2,2-difluoro-2-(4-((4-fluoro-3-methylphenyl)carbamoyl)pyridin-2-yl)acetyl)-8-azabicyclo[3.2.1]octane-3-carboxylic acid] | 5 to 30 | 5 to 30
8 | Cc1cc(NC(=O)c2ccnc(C(F)(F)C(=O)N3C4CC[C@@H]3C[C@@H](C(N)=O)C4)c2)ccc1F [Example 245, (1R,3s,5S)-8-(2,2-difluoro-2-(4-((4-fluoro-3-methylphenyl)carbamoyl)pyridin-2-yl)acetyl)-8-azabicyclo[3.2.1]octane-3-carboxamide] | 5 to 30 | > 30
9 | Cc1cc(NC(=O)c2ccc(F)c(C(F)(F)C(=O)N3C4CC[C@@H]3C[C@@H](O)C4)c2)cc(F)c1F [Example 246, 3-(1,1-difluoro-2-((1R,3s,5S)-3-hydroxy-8-azabicyclo[3.2.1]octan-8-yl)-2-oxoethyl)-N-(3,4-difluoro-5-methylphenyl)-4-fluorobenzamide] | < 5 | 5 to 30
10 | O=C(Nc1cc(F)c(F)c(F)c1)c1ccc(Cl)c(C(F)(F)C(=O)N2C3CC[C@@H]2C[C@@H](O)C3)c1 [Example 247, 4-chloro-3-(1,1-difluoro-2-((1R,3s,5S)-3-hydroxy-8-azabicyclo[3.2.1]octan-8-yl)-2-oxoethyl)-N-(3,4,5-trifluorophenyl)benzamide] | 5 to 30 | 5 to 30
11 | Cc1cc(NC(=O)c2ccc(F)c(C(F)(F)C(=O)N3CCC(O)(CO)CC3)c2)cc(F)c1F [Example 248, 3-(1,1-difluoro-2-(4-hydroxy-4-(hydroxymethyl)piperidin-1-yl)-2-oxoethyl)-N-(3,4-difluoro-5-methylphenyl)-4-fluorobenzamide] | < 5 | 5 to 30
12 | Cc1cc(NC(=O)c2ccc(F)c(C(F)(F)C(=O)N3C4CC[C@@H]3C[C@H](O)C4)c2)cc(F)c1F [Example 249, 3-(1,1-difluoro-2-((1R,3r,5S)-3-hydroxy-8-azabicyclo[3.2.1]octan-8-yl)-2-oxoethyl)-N-(3,4-difluoro-5-methylphenyl)-4-fluorobenzamide] | < 5 | 5 to 30
13 | Cc1cc(NC(=O)c2ccc(F)c(C(F)(F)C(=O)N3CCC(O)C(F)(F)C3)c2)cc(F)c1F (stereo not shown) [Example 250, 3-(2-(3,3-difluoro-4-hydroxypiperidin-1-yl)-1,1-difluoro-2-oxoethyl)-N-(3,4-difluoro-5-methylphenyl)-4-fluorobenzamide] | < 5 | 5 to 30
14 | Cc1cc(NC(=O)c2ccc(F)c(C(F)(F)C(=O)N3CCC(O)C(F)(F)C3)c2)cc(F)n1 (stereo not shown) [Example 251, 3-(2-(3,3-difluoro-4-hydroxypiperidin-1-yl)-1,1-difluoro-2-oxoethyl)-4-fluoro-N-(2-fluoro-6-methylpyridin-4-yl)benzamide] | 5 to 30 | 5 to 30
15 | Cc1cc(NC(=O)c2ccc(F)c(C(F)(F)C(=O)NC34CCC(NC(=O)OC(C)(C)C)(CC3)C4)c2)ccc1F [Example 252, tert-butyl (4-(2,2-difluoro-2-(2-fluoro-5-((4-fluoro-3-methylphenyl)carbamoyl)phenyl)acetamido)bicyclo[2.2.1]heptan-1-yl)carbamate] | 5 to 30 | < 5
16 | Cc1cc(NC(=O)c2ccc(F)c(C(F)(F)C(=O)NC34CCC(N)(CC3)C4)c2)ccc1F [Example 253, 3-(2-((4-aminobicyclo[2.2.1]heptan-1-yl)amino)-1,1-difluoro-2-oxoethyl)-4-fluoro-N-(4-fluoro-3-methylphenyl)benzamide] | < 5 | > 30
17 | Cc1cc(NC(=O)c2ccc(F)c(C(F)(F)C(=O)NC34CCC(O)(CC3)C4)c2)ccc1F [Example 254, 3-(1,1-difluoro-2-((4-hydroxybicyclo[2.2.1]heptan-1-yl)amino)-2-oxoethyl)-4-fluoro-N-(4-fluoro-3-methylphenyl)benzamide] | 5 to 30 | > 30
18 | Cc1cc(NC(=O)c2ccc(F)c(C(F)(F)C(=O)N3CC[C@H](O)C[C@H]3C)c2)ccc1F [Example 255] | < 5 | 5 to 30
19 | Cc1cc(NC(=O)c2cccc(C(F)(F)C(=O)N3C4CC[C@@H]3C[C@@H](O)C4)c2F)ccc1F [Example 256, 3-(1,1-difluoro-2-((1R,3s,5S)-3-hydroxy-8-azabicyclo[3.2.1]octan-8-yl)-2-oxoethyl)-2-fluoro-N-(4-fluoro-3-methylphenyl)benzamide] | < 5 | 5 to 30
20 | Cc1cc(NC(=O)c2ccc(F)c(C(F)(F)C(=O)N3C4CC[C@@H]3C[C@@H](C(N)=O)C4)c2)ccc1F [Example 257, (1R,3s,5S)-8-(2,2-difluoro-2-(2-fluoro-5-((4-fluoro-3-methylphenyl)carbamoyl)phenyl)acetyl)-8-azabicyclo[3.2.1]octane-3-carboxamide] | < 5 | 5 to 30
21 | Cc1cc(NC(=O)c2ccc(F)c(C(F)(F)C(=O)N3C4CC[C@@H]3C[C@@H](C(=O)NCCO)C4)c2)ccc1F [Example 258, (1R,3s,5S)-8-(2,2-difluoro-2-(2-fluoro-5-((4-fluoro-3-methylphenyl)carbamoyl)phenyl)acetyl)-N-(2-hydroxyethyl)-8-azabicyclo[3.2.1]octane-3-carboxamide] | < 5 | > 30
22 | Cc1cc(NC(=O)c2ccc(F)c(C(F)(F)C(=O)N3C4CC[C@@H]3C[C@@H](C(=O)O)C4)c2)ccc1F [Example 259, (1R,3s,5S)-8-(2,2-difluoro-2-(2-fluoro-5-((4-fluoro-3-methylphenyl)carbamoyl)phenyl)acetyl)-8-azabicyclo[3.2.1]octane-3-carboxylic acid] | < 5 | > 30
23 | Cc1cc(NC(=O)c2ccc(F)c(C(F)(F)C(=O)N3C4CC[C@@H]3C[C@@H](C(=O)N3CCOCC3)C4)c2)ccc1F [Example 260, 3-(1,1-difluoro-2-((1R,3s,5S)-3-(morpholine-4-carbonyl)-8-azabicyclo[3.2.1]octan-8-yl)-2-oxoethyl)-4-fluoro-N-(4-fluoro-3-methylphenyl)benzamide] | < 5 | > 30
24 | Cc1cc(NC(=O)c2ccc(F)c(C(F)(F)C(=O)N3C4CC[C@@H]3C[C@@H](NS(C)(=O)=O)C4)c2)ccc1F [Example 261, 3-(1,1-difluoro-2-((1R,3s,5S)-3-(methylsulfonamido)-8-azabicyclo[3.2.1]octan-8-yl)-2-oxoethyl)-4-fluoro-N-(4-fluoro-3-methylphenyl)benzamide] | < 5 | < 5
25 | Cc1cc(NC(=O)c2ccc(F)c(C(F)(F)C(=O)N3C4CC[C@@H]3C[C@H](NS(C)(=O)=O)C4)c2)ccc1F [Example 262, 3-(1,1-difluoro-2-((1R,3r,5S)-3-(methylsulfonamido)-8-azabicyclo[3.2.1]octan-8-yl)-2-oxoethyl)-4-fluoro-N-(4-fluoro-3-methylphenyl)benzamide] | < 5 | 5 to 30
26 | CC(=O)N[C@@H]1CC2CC[C@H](C1)N2C(=O)C(F)(F)c1cc(C(=O)Nc2ccc(F)c(C)c2)ccc1F [Example 263, 3-(2-((1R,3r,5S)-3-acetamido-8-azabicyclo[3.2.1]octan-8-yl)-1,1-difluoro-2-oxoethyl)-4-fluoro-N-(4-fluoro-3-methylphenyl)benzamide] | < 5 | 5 to 30
